This note sets out measurements from ChEMBL document CHEMBL5465560, “Selectivity Literature for EUbOPEN Chemogenomic Library” (2024).

Test [1] has as its target Protein arginine N-methyltransferase 8 (Homo sapiens, UniProt Q9NR22). In words: Selectivity interaction (Methyltransferase screen (Scintillation proximity assays)) EUB0000255b PRMT8.
The target in test [2] is Proto-oncogene tyrosine-protein kinase Src (Homo sapiens, UniProt P12931). Briefly: Selectivity interaction (ActivX KiNativ screen (ex vivo kinase selectivity in human PBMCs)) EUB0001619a SRC. Type of test: cell-based. To be noted: PBMC, at 1 µM.
Proto-oncogene tyrosine-protein kinase Src, sequence (P12931 2-536 limits assumed): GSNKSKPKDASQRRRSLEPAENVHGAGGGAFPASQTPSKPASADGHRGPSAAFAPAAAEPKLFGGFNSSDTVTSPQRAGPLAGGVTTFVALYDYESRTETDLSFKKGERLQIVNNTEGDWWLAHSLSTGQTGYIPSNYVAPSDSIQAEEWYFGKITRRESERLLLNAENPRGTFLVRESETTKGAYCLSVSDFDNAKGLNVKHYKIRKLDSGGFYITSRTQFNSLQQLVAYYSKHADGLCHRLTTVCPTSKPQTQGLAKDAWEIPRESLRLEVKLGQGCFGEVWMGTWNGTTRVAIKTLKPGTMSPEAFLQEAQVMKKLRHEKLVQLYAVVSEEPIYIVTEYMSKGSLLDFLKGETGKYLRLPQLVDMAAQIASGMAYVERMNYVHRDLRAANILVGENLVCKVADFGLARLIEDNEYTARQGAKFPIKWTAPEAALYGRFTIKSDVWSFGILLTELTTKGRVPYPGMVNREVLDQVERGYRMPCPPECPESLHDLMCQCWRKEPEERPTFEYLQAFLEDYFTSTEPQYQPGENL
Test [3] deals with T1, Serine/threonine-protein kinase Nek1 (Homo sapiens) (UniProt Q96PY6).
T1 sequence (whole entry): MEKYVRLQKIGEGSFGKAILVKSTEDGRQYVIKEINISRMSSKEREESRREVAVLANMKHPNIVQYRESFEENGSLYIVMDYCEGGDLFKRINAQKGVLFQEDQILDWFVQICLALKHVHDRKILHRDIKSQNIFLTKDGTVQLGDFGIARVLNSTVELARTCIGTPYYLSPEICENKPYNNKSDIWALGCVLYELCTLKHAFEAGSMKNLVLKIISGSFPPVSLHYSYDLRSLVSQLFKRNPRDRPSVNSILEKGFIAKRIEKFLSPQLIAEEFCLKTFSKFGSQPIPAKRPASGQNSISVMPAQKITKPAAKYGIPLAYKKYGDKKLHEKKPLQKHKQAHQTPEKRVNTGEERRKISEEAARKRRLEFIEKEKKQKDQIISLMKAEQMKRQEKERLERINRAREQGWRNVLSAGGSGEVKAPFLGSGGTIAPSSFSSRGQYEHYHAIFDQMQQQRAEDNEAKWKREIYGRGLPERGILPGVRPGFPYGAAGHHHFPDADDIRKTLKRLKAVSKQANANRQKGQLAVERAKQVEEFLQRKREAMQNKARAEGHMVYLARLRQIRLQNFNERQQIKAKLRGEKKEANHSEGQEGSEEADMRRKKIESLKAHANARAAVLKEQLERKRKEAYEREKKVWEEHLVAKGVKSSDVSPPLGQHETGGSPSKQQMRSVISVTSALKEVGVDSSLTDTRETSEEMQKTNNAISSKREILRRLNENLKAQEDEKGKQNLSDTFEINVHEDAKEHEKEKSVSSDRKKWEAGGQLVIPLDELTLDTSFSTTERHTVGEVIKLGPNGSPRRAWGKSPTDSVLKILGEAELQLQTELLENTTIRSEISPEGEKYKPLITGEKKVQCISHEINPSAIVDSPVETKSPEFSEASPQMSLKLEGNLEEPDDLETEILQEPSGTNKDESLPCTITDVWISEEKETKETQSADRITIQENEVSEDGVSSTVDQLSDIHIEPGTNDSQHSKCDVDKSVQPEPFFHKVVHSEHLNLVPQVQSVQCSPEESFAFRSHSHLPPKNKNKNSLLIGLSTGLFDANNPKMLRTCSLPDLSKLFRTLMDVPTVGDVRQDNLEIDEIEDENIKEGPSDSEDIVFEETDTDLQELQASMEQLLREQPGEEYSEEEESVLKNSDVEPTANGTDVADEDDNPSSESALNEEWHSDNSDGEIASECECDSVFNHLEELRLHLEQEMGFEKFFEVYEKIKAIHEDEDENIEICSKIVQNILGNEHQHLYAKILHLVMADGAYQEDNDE
Briefly: Selectivity interaction (KinomeScan (DiscoverX)) EUB0000695a NEK1. The settings on record: at 100 nM.

The target of test [4] is T2, Tyrosine-protein kinase JAK3 (Homo sapiens) (UniProt P52333).
T2 sequence (whole entry): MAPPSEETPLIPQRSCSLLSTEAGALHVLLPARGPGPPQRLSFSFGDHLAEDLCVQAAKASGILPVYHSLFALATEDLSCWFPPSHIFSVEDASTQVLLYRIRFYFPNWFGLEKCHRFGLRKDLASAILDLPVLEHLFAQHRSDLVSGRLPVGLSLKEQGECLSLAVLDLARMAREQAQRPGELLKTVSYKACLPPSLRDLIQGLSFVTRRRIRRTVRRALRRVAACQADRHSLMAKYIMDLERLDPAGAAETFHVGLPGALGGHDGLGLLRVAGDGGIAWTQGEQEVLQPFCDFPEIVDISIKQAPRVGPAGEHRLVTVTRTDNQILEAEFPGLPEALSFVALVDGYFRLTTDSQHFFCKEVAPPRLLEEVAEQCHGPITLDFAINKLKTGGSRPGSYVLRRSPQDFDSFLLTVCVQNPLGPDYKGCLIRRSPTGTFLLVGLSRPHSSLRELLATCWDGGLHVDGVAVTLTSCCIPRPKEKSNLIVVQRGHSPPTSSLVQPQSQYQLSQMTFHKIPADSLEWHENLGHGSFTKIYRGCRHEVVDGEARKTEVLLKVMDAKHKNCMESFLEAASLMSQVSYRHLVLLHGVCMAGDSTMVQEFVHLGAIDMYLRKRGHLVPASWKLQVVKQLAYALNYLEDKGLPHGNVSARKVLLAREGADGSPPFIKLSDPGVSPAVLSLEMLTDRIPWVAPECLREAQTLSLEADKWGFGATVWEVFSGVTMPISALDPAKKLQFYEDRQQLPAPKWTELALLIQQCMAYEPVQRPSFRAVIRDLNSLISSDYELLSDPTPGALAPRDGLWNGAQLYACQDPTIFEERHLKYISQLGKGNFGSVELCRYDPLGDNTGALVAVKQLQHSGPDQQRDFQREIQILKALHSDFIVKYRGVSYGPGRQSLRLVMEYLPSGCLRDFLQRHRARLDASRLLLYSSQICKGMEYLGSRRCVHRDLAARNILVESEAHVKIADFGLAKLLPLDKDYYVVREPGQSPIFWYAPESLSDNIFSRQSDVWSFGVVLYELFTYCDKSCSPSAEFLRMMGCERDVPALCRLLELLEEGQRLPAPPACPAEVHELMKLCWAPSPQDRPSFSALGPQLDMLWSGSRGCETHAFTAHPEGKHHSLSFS
To be noted: at 10 µM.

Test [5] has as its target Tyrosine-protein kinase ABL1 (Homo sapiens, UniProt P00519). Briefly: Selectivity interaction (Kinase screening (Nanosyn)) EUB0000604a ABL1.
For test [6], the target named is Tyrosine-protein kinase Yes (Homo sapiens) (UniProt P07947). Briefly: Selectivity interaction (ActivX KiNativ screen (kinase selectivity in THP-1 cell lysates)) EUB0000639a YES1. It is filed as subcellular. The settings on record: lysate.
Tyrosine-protein kinase Yes (Homo sapiens), sequence (P07947 2-543 limits assumed): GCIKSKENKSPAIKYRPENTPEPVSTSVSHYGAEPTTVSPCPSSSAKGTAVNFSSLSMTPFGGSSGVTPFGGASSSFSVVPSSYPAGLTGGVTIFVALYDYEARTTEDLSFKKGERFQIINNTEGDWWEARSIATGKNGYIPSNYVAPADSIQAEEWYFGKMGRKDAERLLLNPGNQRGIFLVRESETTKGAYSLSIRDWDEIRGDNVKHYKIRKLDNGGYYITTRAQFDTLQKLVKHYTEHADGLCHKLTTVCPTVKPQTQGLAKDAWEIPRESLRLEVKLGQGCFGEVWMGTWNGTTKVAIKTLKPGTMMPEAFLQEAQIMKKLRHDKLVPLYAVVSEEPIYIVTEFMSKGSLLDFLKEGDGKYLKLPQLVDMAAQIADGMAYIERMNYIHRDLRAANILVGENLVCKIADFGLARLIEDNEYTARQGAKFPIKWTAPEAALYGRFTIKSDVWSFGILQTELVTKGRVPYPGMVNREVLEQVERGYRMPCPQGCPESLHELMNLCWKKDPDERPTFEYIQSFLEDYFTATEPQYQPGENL
For test [7], the system named is Fibroblast growth factor receptor 3 (Homo sapiens), P22607 [G697C]. In words: (§1) Selectivity interaction (Ambit KINOMEscan and KiNATiv profiling in Jurkat cells) EUB0000090b FGFR3. It is filed as cell-based. The settings on record: at 1 µM.
Fibroblast growth factor receptor 3 (Homo sapiens), P22607 [G697C], sequence (P22607 whole entry G697C): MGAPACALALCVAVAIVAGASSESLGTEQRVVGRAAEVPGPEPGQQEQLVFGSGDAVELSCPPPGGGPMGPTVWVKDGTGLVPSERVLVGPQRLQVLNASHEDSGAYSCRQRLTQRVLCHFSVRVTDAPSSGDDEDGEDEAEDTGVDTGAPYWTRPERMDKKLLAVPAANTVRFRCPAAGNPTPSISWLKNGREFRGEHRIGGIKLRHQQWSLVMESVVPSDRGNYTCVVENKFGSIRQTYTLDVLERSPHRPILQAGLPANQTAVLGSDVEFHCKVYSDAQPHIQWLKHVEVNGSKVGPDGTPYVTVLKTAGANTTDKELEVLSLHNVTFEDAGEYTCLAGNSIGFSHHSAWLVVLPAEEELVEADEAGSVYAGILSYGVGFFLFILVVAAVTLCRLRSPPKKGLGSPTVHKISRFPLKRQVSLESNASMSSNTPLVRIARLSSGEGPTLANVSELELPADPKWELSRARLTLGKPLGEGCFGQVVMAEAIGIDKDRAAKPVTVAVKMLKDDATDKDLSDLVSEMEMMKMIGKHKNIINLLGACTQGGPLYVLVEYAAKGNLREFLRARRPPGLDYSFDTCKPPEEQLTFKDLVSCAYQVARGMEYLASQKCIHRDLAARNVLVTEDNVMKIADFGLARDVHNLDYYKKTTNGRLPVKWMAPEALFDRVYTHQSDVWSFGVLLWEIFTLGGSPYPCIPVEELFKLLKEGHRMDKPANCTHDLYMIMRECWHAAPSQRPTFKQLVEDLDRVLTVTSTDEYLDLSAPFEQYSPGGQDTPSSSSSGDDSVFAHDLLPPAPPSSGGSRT
Test [8] deals with Fibroblast growth factor receptor 3 (Homo sapiens, UniProt P22607). The description is as §1. Type of test: cell-based. To be noted: at 1 µM.
Fibroblast growth factor receptor 3, sequence (P22607 23-806 limits assumed): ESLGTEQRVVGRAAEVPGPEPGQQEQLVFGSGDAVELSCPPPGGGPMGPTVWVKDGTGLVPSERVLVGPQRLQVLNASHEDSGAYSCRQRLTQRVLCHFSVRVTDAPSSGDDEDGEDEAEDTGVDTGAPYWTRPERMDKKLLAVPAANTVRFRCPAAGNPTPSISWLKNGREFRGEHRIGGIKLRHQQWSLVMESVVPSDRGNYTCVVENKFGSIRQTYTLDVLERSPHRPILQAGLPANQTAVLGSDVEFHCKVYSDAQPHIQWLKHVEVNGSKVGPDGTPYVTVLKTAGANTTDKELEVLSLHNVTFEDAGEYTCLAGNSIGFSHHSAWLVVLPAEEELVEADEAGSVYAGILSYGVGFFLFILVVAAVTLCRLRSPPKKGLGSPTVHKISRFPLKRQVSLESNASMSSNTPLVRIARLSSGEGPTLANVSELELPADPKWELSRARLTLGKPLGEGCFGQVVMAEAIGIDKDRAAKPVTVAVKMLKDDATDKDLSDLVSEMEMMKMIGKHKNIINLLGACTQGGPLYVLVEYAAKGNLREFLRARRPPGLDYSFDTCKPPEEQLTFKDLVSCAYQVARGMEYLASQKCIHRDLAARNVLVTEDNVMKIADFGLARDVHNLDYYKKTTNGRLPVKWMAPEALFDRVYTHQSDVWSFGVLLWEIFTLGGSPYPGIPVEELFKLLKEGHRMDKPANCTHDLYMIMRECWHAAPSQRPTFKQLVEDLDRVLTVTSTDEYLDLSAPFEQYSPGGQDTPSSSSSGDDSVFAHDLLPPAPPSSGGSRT

Protein arginine N-methyltransferase 8, sequence (Q9NR22 2-394 limits assumed): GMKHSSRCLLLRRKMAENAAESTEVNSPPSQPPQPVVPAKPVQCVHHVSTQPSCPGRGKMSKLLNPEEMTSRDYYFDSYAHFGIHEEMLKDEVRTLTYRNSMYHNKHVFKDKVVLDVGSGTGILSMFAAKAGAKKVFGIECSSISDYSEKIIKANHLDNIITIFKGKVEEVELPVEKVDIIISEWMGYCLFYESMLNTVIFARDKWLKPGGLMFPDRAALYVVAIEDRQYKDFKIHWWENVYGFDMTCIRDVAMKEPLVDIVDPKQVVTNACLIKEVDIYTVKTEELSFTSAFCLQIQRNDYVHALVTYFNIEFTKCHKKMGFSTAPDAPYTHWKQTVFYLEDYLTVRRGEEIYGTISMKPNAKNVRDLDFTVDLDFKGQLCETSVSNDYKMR
Tyrosine-protein kinase ABL1, sequence (P00519 whole entry): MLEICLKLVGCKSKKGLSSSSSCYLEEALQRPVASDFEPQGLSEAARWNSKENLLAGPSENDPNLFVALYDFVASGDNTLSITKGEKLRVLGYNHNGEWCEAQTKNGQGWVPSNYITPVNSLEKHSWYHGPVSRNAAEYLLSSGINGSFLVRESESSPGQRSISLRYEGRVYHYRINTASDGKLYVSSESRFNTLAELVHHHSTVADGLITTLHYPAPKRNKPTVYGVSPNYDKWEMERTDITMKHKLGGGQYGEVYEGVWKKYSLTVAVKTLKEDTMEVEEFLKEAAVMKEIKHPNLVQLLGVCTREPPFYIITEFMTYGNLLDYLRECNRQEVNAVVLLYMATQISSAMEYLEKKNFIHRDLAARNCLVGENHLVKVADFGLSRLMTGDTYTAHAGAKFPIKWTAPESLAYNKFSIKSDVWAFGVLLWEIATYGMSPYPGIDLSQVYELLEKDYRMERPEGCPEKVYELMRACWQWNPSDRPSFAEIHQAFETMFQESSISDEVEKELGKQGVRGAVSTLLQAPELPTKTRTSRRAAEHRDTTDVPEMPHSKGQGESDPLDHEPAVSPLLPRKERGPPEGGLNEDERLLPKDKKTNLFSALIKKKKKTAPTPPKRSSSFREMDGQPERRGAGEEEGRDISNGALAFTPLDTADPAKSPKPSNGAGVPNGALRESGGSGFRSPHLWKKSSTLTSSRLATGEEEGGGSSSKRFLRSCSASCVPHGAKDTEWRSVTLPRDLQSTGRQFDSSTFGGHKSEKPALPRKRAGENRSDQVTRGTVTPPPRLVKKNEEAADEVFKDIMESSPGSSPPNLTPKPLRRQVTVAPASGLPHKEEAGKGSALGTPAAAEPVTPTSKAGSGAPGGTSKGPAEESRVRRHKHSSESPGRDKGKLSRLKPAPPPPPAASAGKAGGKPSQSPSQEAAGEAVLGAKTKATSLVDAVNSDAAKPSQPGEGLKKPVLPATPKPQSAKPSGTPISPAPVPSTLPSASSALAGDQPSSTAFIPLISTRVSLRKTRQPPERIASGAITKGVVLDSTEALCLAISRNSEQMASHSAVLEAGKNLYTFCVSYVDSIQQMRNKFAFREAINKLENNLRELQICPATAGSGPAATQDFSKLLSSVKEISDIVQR

Regarding `COCCN1CCC(c2cc(CN(C)C(=O)c3cccc(Oc4ccccc4)c3)ccn2)CC1`, the % activity in test [1] (at 1 µM) is 50%; in test [1] (at 10 µM), over 90%.

Consider `N#Cc1cccc(-c2c[nH]c3ncnc(N4CCOCC4)c23)c1`, for which, in test [2], the % of inhibition was -2%.

`Cc1cc(F)c(C(=O)Nc2cccc(-c3nncn3C(C)C)n2)cc1-n1cnc(C2CC2)c1`: the % of control in test [3] came out at 100%.

In test [4], `Cc1cc([C@@H](C)Nc2ccccc2C(=O)O)c2nc(N3CCOCC3)cc(=O)n2c1` [AZD-6482] registered a % of control of 94%.

On to `Cc1cnc(Nc2ccc(F)cc2Cl)nc1-c1c[nH]c(C(=O)N[C@H](CO)c2cccc(Cl)c2)c1`, for which, in test [5], the % of inhibition amounted to 3%.

Regarding `CC[C@@H]1[C@H](F)C(=O)N[C@@H]1COc1nccc2cc(C(N)=O)c(OC)cc12` [ZIMLOVISERTIB], the % of inhibition in test [6] (at 0.01 µM) was -8.5%; in test [6] (at 0.04 µM), -0.2%; in test [6] (at 0.2 µM), 0.7%; in test [6] (at 1 µM), -11%; in test [6] (at 5 µM), -13.3%.

On to `CN(C)C/C=C/C(=O)Nc1ccc(C(=O)N2CCCC(Nc3ncc(Cl)c(-c4c[nH]c5ccccc45)n3)C2)cc1` (stereo not drawn), for which the % of control in test [7] is 72%; in test [8] it was 92%.
